Data as given in PubChem BioAssay (NCI).
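All cell lines were grown in 96-well plates and treated with compound for 48 hours. Definition used: TGI = concentration required for complete inhibition of growth.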

What was measured:
Assay in all cases: inhibition of tumour cell growth, NCI panel, 48 h
[1] = tested on: 786-0 renal
[2] = tested on: A498 renal
[3] = tested on: A549 NSCLC
[4] = tested on: ACHN renal
[5] = tested on: BT-549 breast
[6] = tested on: CAKI-1 renal
[7] = tested on: CCRF-CEM leukemia
[8] = tested on: COLO 205 colon
[9] = tested on: DU-145 prostate
[10] = tested on: EKVX NSCLC
[11] = tested on: HCT-116 colon
[12] = tested on: HCT-15 colon
[13] = tested on: HL-60(TB) leukemia
[14] = tested on: HOP-62 NSCLC
[15] = tested on: HOP-92 NSCLC
[16] = tested on: HS 578T breast
[17] = tested on: HT29 colon
[18] = tested on: IGROV1 ovarian
[19] = tested on: K-562 leukemia
[20] = tested on: KM12 colon
[21] = tested on: LOX IMVI melanoma
[22] = tested on: M14 melanoma
[23] = tested on: MALME-3M melanoma
[24] = tested on: MCF7 breast
[25] = tested on: MDA-MB-231 breast
[26] = tested on: MDA-MB-435
[27] = tested on: MDA-N
[28] = tested on: MOLT-4 leukemia
[29] = tested on: NCI-H226 lung
[30] = tested on: NCI-H23 lung
[31] = tested on: NCI-H460 lung
[32] = tested on: NCI-H522 lung
[33] = tested on: NCI/ADR-RES ovarian
[34] = tested on: OVCAR-3 ovarian
[35] = tested on: OVCAR-4 ovarian
[36] = tested on: OVCAR-5 ovarian
[37] = tested on: OVCAR-8 ovarian
[38] = tested on: PC-3 prostate
[39] = tested on: RPMI-8226 leukemia
[40] = tested on: RXF 393 renal
[41] = tested on: SF-268 CNS
[42] = tested on: SF-295 CNS
[43] = tested on: SF-539 CNS
[44] = tested on: SK-MEL-2 melanoma
[45] = tested on: SK-MEL-28 melanoma
[46] = tested on: SK-MEL-5 melanoma
[47] = tested on: SK-OV-3 ovarian
[48] = tested on: SN12C renal
[49] = tested on: SNB-19 CNS
[50] = tested on: SR leukemia
[51] = tested on: SW-620 colon
[52] = tested on: T-47D breast
[53] = tested on: TK-10 renal
[54] = tested on: U251 CNS
[55] = tested on: UACC-257 melanoma
[56] = tested on: UACC-62 melanoma
[57] = tested on: UO-31 renal
[58] = tested on: HCC-2998 colon
[59] = tested on: SNB-75 CNS

With `O=C(O)C1Cc2c([nH]c3ccccc23)C(CCCCO)N1` (stereo not drawn) the TGI [1] was greater than 100 µM, the TGI [2] was greater than 100 µM and the TGI [3] was greater than 100 µM. The TGI [4] was greater than 100 µM, the TGI [5] was greater than 100 µM and the TGI [6] was greater than 100 µM. The TGI [7] was greater than 100 µM, the TGI [8] was greater than 100 µM and the TGI [9] was greater than 100 µM. For the same compound, the TGI [10] was greater than 100 µM, the TGI [11] was greater than 100 µM and the TGI [12] was greater than 100 µM. It also gave a TGI [13] greater than 100 µM, a TGI [14] greater than 100 µM and a TGI [15] greater than 100 µM. It also gave a TGI [16] greater than 100 µM, a TGI [17] greater than 100 µM and a TGI [18] greater than 100 µM. The TGI [19] was greater than 100 µM, the TGI [20] was greater than 100 µM and the TGI [21] was greater than 100 µM. The TGI [22] was greater than 100 µM, the TGI [23] was greater than 100 µM and the TGI [24] was greater than 100 µM. For the same compound, the TGI [25] was greater than 100 µM, the TGI [26] was greater than 100 µM and the TGI [27] was greater than 100 µM. The TGI [28] was greater than 100 µM, the TGI [29] was greater than 100 µM and the TGI [30] was greater than 100 µM. The TGI [31] was greater than 100 µM, the TGI [32] was greater than 100 µM and the TGI [33] was greater than 100 µM. It also gave a TGI [34] greater than 100 µM, a TGI [35] greater than 100 µM and a TGI [36] greater than 100 µM. For the same compound, the TGI [37] was greater than 100 µM, the TGI [38] was greater than 100 µM and the TGI [39] was greater than 100 µM. It also gave a TGI [40] greater than 100 µM, a TGI [41] greater than 100 µM and a TGI [42] greater than 100 µM. It also gave a TGI [43] greater than 100 µM, a TGI [44] greater than 100 µM and a TGI [45] greater than 100 µM. For the same compound, the TGI [46] was greater than 100 µM, the TGI [47] was greater than 100 µM and the TGI [48] was greater than 100 µM. For the same compound, the TGI [49] was greater than 100 µM, the TGI [50] was greater than 100 µM and the TGI [51] was greater than 100 µM. It also gave a TGI [52] greater than 100 µM, a TGI [53] greater than 100 µM and a TGI [54] greater than 100 µM. The TGI [55] was greater than 100 µM, the TGI [56] was greater than 100 µM and the TGI [57] was greater than 100 µM.
With `CC(=O)Oc1ccc2c3c1[C@H]1O[C@H]1c1cccc(c1-3)[C@@H]1O[C@H]21` the TGI [1] was 6.01 µM, the TGI [2] was 33.8 µM and the TGI [3] was 22.1 µM. For the same compound, the TGI [4] was 37.4 µM, the TGI [5] was 23.6 µM and the TGI [6] was 7.96 µM. The TGI [8] was 27.4 µM, the TGI [9] was 20.8 µM and the TGI [10] was 36.9 µM. It also gave a TGI [58] of 25.3 µM, a TGI [11] of 34.4 µM and a TGI [12] of 13.1 µM. It also gave a TGI [13] of 6.61 µM, a TGI [14] of 17.5 µM and a TGI [15] of 24.9 µM. The TGI [16] was 14.4 µM, the TGI [17] was 47.4 µM and the TGI [19] was greater than 100 µM. For the same compound, the TGI [20] was 27.5 µM, the TGI [21] was 4.13 µM and the TGI [22] was 10.2 µM. For the same compound, the TGI [23] was 5.76 µM, the TGI [24] was greater than 100 µM and the TGI [25] was 31.5 µM. The TGI [26] was 4.26 µM, the TGI [27] was 20.9 µM and the TGI [28] was greater than 100 µM. It also gave a TGI [29] of 56.8 µM, a TGI [30] of 12.7 µM and a TGI [32] of 4.51 µM. For the same compound, the TGI [33] was 43.5 µM, the TGI [34] was 11.8 µM and the TGI [35] was 18.6 µM. For the same compound, the TGI [36] was 31.8 µM, the TGI [37] was 9.88 µM and the TGI [38] was 32.9 µM. For the same compound, the TGI [39] was greater than 100 µM, the TGI [40] was 6.84 µM and the TGI [41] was 14.4 µM. The TGI [42] was 25 µM, the TGI [44] was 39.6 µM and the TGI [45] was 27.7 µM. It also gave a TGI [46] of 12.1 µM, a TGI [47] of 27.9 µM and a TGI [48] of 7.55 µM. For the same compound, the TGI [49] was 30.5 µM, the TGI [59] was 15.7 µM and the TGI [50] was greater than 100 µM. For the same compound, the TGI [51] was 4.59 µM, the TGI [52] was 6.79 µM and the TGI [53] was 31.8 µM. The TGI [54] was 18.9 µM, the TGI [55] was 32.9 µM and the TGI [56] was 20.8 µM. It also gave a TGI [57] of 8.94 µM.
Compound `COc1ccc2c(c1)CCc1cc(C(N)=O)c3nnnn3c1-2` has a TGI [1] greater than 100 µM, a TGI [2] of 62.2 µM and a TGI [3] greater than 100 µM. The TGI [4] was greater than 100 µM, the TGI [5] was greater than 100 µM and the TGI [6] was greater than 100 µM. The TGI [7] was greater than 91.2 µM, the TGI [8] was greater than 100 µM and the TGI [9] was greater than 100 µM. The TGI [58] was greater than 100 µM, the TGI [11] was greater than 100 µM and the TGI [12] was greater than 100 µM. It also gave a TGI [13] greater than 100 µM, a TGI [14] greater than 100 µM and a TGI [15] greater than 100 µM. It also gave a TGI [16] greater than 100 µM, a TGI [17] greater than 100 µM and a TGI [18] greater than 100 µM. The TGI [19] was greater than 100 µM, the TGI [20] was greater than 100 µM and the TGI [21] was greater than 100 µM. For the same compound, the TGI [22] was greater than 100 µM, the TGI [23] was greater than 100 µM and the TGI [24] was greater than 100 µM. It also gave a TGI [25] greater than 100 µM, a TGI [26] greater than 100 µM and a TGI [27] greater than 100 µM. It also gave a TGI [28] greater than 76.9 µM, a TGI [29] greater than 100 µM and a TGI [30] greater than 100 µM. The TGI [31] was 50.9 µM, the TGI [32] was greater than 100 µM and the TGI [33] was greater than 100 µM. The TGI [34] was greater than 100 µM, the TGI [35] was greater than 100 µM and the TGI [36] was greater than 100 µM. For the same compound, the TGI [37] was greater than 100 µM, the TGI [38] was greater than 100 µM and the TGI [39] was greater than 100 µM. The TGI [40] was 63 µM, the TGI [41] was 29.3 µM and the TGI [42] was 98.5 µM. It also gave a TGI [43] greater than 100 µM, a TGI [44] greater than 75.5 µM and a TGI [45] greater than 100 µM. For the same compound, the TGI [46] was greater than 100 µM, the TGI [47] was greater than 100 µM and the TGI [48] was greater than 100 µM. It also gave a TGI [49] greater than 100 µM, a TGI [50] greater than 100 µM and a TGI [51] greater than 100 µM. The TGI [52] was greater than 100 µM, the TGI [53] was greater than 100 µM and the TGI [54] was greater than 67.4 µM. For the same compound, the TGI [55] was greater than 100 µM and the TGI [56] was 23.9 µM.
